From patent US5733918A, “Condensed-Indan derivatives and pharmaceutically acceptable salts thereof” (Taiho Pharmaceutical Co., Ltd., priority 1994, dated 1998)
In brackets after ≈: the same amount, converted by molar mass.

How the values were obtained:
[1] = system: P388 mouse leukemia cells; assay: Antineoplastic action: increase in life span of CDF1 mice bearing P388 mouse leukemia cells; type: in vivo; details: P388, ip
Method: P388 mouse leukemia cells (1×10^6 cells/mouse) were injected intraperitoneally into CDF1 mouse. Each of the compound of the invention dissolved in 5% glucose or 5% dimethylsulfoxide at each of predetermined concentration was injected intraperitoneally on 1 and 5 days after injection. The antitumor activity thereof was evaluated as percentage of increase in life span (ILS %) compared to the mean survival of the untreated control group.

[2] = system: P388 mouse leukemia cells; assay: Cytotoxicity against P388 mouse leukemia cells (crystal violet staining); type: cell-based; details: 72 h, 3 days incubation, cell number reduced to 50% of control
Method: P388 mouse leukemia cells were plated into 96-well plate at the density of 2×10^3 cells/well. The compounds of the invention were dissolved in purified water or dimethylsulfoxide and the solution was diluted with medium to various concentrations and added to respective wells. After the plate was incubated for 3 days, the cultures were fixed with glutaraldehyde and the number of survived cells were determined by crystal violet staining method.

[3] = i.p. on 1 and 5 days after tumor injection, CDF1 mouse, vs untreated control

For `COc1ccc2c3c(c(NCCN(C)C)nc2c1)C(=O)c1ccccc1-3` [Compound 1-a], the ILS at 100 mg/kg/day [1, 3] was 68% and the IC50 [2] was 24 ng/mL (≈ 69.1 nM).

Work on `CN(C)CCNc1nc2cc(F)ccc2c2c1C(=O)c1ccccc1-2.Cl.Cl` [Compound 2, 6-(((dimethylamino)ethyl)amino)-3-fluoro-7H-indeno[2,1-c]quinoline-7-on dihydrochloride] yielded an ILS at 67 mg/kg/day [1, 3] of 85% and an IC50 [2] of 4.8 ng/mL.

`CN(C)CCNc1nc2cc(O)ccc2c2c1C(=O)c1ccccc1-2` [Compound 3-a] showed an ILS at 10 mg/kg/day ([1]; Mus musculus, read-out: Increase in life span (ILS %)) of 94.4%.

With `CCN(CC)CCNc1nc2cc(O)ccc2c2c1C(=O)c1ccccc1-2` [Compound 7] the ILS at 44 mg/kg/day [1, 3] was 223% and the IC50 [2] was 0.65 ng/mL (≈ 1.8 nM).

Work on `CN1CCN(c2nc3cc(O)ccc3c3c2C(=O)c2ccccc2-3)CC1` [Compound 9-a] yielded an ILS at 150 mg/kg/day [1, 3] of 60% and an IC50 [2] of 7.4 ng/mL (≈ 21.4 nM).

Compound `CN(C)CCNc1nc2cc(O)ccc2c2c1C(=O)c1cc(Cl)ccc1-2` [Compound 23-a] has an IC50 [2] of 0.11 ng/mL (≈ 0.299 nM).

In the case of `O=C1c2ccccc2-c2c1c(NCCN1CCCC1)nc1cc(O)ccc21` [Compound 26-a], the ILS at 30 mg/kg/day [1, 3] is reported as 70.6% and the IC50 [2] is reported as 0.42 ng/mL (≈ 1.17 nM).

Work on `CN(C)CCNc1nc2ccccc2c2c1C(=O)c1ccccc1-2` [Compound 28-a] yielded an ILS at 67 mg/kg/day [1, 3] of 180% and an IC50 [2] of 2 ng/mL (≈ 6.3 nM).

`CN(C)CCNc1nc2ccc(O)cc2c2c1C(=O)c1ccccc1-2` [Compound 31-a] gave an ILS at 30 mg/kg/day [1, 3] of 48.5% and an IC50 [2] of 6 ng/mL (≈ 18 nM).

`CN(C)CCNc1nc2cc(N)ccc2c2c1C(=O)c1ccccc1-2` [Compound 41-a] was tested, and the ILS at 67 mg/kg/day [1, 3] was 306% and the IC50 [2] was 11 ng/mL (≈ 33.1 nM).

`CN(C)CCNc1nc2ccccc2c2c1C(=O)c1cc(O)ccc1-2` [Compound 47-a] showed an ILS at 44 mg/kg/day [1, 3] of 130% and an IC50 [2] of 1.3 ng/mL (≈ 3.9 nM).

With `CN(C)CCNc1nc2ccccc2c2c1C(=O)c1ccc(O)cc1-2` [Compound 49-a] the ILS at 150 mg/kg/day [1, 3] was 66.7% and the IC50 [2] was 2 ng/mL (≈ 6 nM).

`CN(C)CCNc1nc2cc(O)ccc2c2c1C(=O)c1cc(O)ccc1-2` [Compound 50-a] was tested, and the ILS at 20 mg/kg/day ([1]; dose 20 mg/kg/day, i.p. on 1 and 5 days after tumor injection, CDF1 mouse, vs untreated control) was 45.2% and the IC50 [2] was 1.1 ng/mL (≈ 3.15 nM).

With `O=C1c2ccccc2-c2c1c(NCCNCCO)nc1cc(O)ccc21` [Compound 55] the IC50 [2] was 0.95 ng/mL (≈ 2.72 nM).

`CNCCNc1nc2cc(O)ccc2c2c1C(=O)c1ccccc1-2.Cl.Cl.Cl` [Compound 60, 6-(((methylamino)ethyl)amino)-3-hydroxy-7H-indeno[2,1-c]quinoline-7-on-trihydrochloride] gave an IC50 [2] of 0.66 ng/mL.

`CN(C)CCOc1nc2cc(O)ccc2c2c1C(=O)c1ccccc1-2` [Compound 62] showed an IC50 [2] of 0.3 ng/mL (≈ 0.897 nM).

With `CN(C)CCOc1nc2ccccc2c2c1C(=O)c1cc3c(cc1-2)OCO3` [Compound 64-a] the ILS at 67 mg/kg/day [1, 3] was 153% and the IC50 [2] was 0.87 ng/mL (≈ 2.4 nM).

`CN(C)CCNc1nc2ccccc2c2c1C(=O)c1cc3c(cc1-2)OCO3` [Compound 66-a] was tested, and the ILS at 44 mg/kg/day [1, 3] was 141% and the IC50 [2] was 1.2 ng/mL (≈ 3.32 nM).

In the case of `CN(C)CCNc1nc2cc3c(cc2c2c1C(=O)c1ccccc1-2)OCO3` [Compound 73-a], the ILS at 44 mg/kg/day [1, 3] is reported as 129% and the IC50 [2] is reported as 13 ng/mL (≈ 36 nM).

Compound `CN1CCN(c2nc3c(c4ccccc24)-c2ccccc2C3=O)CC1` [Compound 75, 6-(1-(4-methylpiperazinyl))-7H-indeno[2,1-c]isoquinoline-7-on] has an IC50 [2] of 450 ng/mL (≈ 1370 nM).

`CN(C)CCN(C)c1nc2c(c3ccccc13)-c1ccccc1C2=O` [Compound 76] showed an ILS at 100 mg/kg/day [1, 3] of 75% and an IC50 [2] of 160 ng/mL (≈ 483 nM).
